Source: ChEMBL document CHEMBL1128916, “Phosphoramidate derivatives of d4T with improved anti-HIV efficacy retain full activity in thymidine kinase-deficient cells” (Bioorg Med Chem Lett, 1996)

What was measured:
Details in all cases: Homo sapiens
[1] = system: CCRF-CEM; experiment: Compound was evaluated for the inhibition of HIV replication using HIV-1 infected CEM cells.; type: functional, cell-based
[2] = system: CCRF-CEM; experiment: Compound was evaluated for the inhibition of HIV replication using HIV-2 infected CEM cells.; type: functional, cell-based
[3] = system: CCRF-CEM; experiment: Compound was evaluated for the inhibition of HIV replication using HIV-2 infected CEM-TK- cells.; type: functional, cell-based
[4] = system: CCRF-CEM; experiment: Compound was evaluated for the cytotoxic concentration to inhibit HIV replication in CEM cells.; type: functional

SMILES	EC50 [1] [nM]	EC50 [2] [nM]	EC50 [3] [nM]	CC50 [4] [nM]
COC(=O)C(C)NP(=O)(OC[C@@H]1C=C[C@H](n2cc(C)c(=O)[nH]c2=O)O1)Oc1ccccc1 (stereo partly specified)	85	102	75	> 100000
Cc1cn(C2C=CC(COP(=O)(NC(C)C(=O)OCc3ccccc3)Oc3ccccc3)O2)c(=O)[nH]c1=O (stereo unspecified)	22	39	60	52000
Cc1cn([C@H]2C=C[C@@H](CO)O2)c(=O)[nH]c1=O [STAVUDINE]	160	270	25000	> 100000
Cc1cn([C@H]2C[C@H](N=[N+]=[N-])[C@@H](CO)O2)c(=O)[nH]c1=O [ZIDOVUDINE]	5	8	> 100000	> 100000
